Data on 26 molecules can be found in ChEMBL document CHEMBL1153098, “Discovery of 2-arylthieno[3,2-d]pyrimidines containing 8-oxa-3-azabi-cyclo[3.2.1]octane in the 4-position as potent inhibitors of mTOR with selectivity over PI3K” (Bioorg Med Chem Lett, 2010).

As a reminder, the IC50 is the concentration that inhibits the measured activity by half.

The nature of test [1]: Selectivity index, ratio of IC50 for PI3Kalpha to IC50 for mTOR.
The next test has as its system LNCaP. In words: Cytotoxicity against human LNCAP cells. Type of test: functional, cell-based.
Test [2] deals with Serine/threonine-protein kinase mTOR (Homo sapiens, UniProt P42345). In words: Inhibition of mTOR.
Test [3] addresses Phosphatidylinositol 4,5-bisphosphate 3-kinase catalytic subunit alpha isoform (Homo sapiens, UniProt P42336). In words: Inhibition of PI3Kalpha.

Chain of Phosphatidylinositol 4,5-bisphosphate 3-kinase catalytic subunit alpha isoform (P42336 whole entry, canonical isoform): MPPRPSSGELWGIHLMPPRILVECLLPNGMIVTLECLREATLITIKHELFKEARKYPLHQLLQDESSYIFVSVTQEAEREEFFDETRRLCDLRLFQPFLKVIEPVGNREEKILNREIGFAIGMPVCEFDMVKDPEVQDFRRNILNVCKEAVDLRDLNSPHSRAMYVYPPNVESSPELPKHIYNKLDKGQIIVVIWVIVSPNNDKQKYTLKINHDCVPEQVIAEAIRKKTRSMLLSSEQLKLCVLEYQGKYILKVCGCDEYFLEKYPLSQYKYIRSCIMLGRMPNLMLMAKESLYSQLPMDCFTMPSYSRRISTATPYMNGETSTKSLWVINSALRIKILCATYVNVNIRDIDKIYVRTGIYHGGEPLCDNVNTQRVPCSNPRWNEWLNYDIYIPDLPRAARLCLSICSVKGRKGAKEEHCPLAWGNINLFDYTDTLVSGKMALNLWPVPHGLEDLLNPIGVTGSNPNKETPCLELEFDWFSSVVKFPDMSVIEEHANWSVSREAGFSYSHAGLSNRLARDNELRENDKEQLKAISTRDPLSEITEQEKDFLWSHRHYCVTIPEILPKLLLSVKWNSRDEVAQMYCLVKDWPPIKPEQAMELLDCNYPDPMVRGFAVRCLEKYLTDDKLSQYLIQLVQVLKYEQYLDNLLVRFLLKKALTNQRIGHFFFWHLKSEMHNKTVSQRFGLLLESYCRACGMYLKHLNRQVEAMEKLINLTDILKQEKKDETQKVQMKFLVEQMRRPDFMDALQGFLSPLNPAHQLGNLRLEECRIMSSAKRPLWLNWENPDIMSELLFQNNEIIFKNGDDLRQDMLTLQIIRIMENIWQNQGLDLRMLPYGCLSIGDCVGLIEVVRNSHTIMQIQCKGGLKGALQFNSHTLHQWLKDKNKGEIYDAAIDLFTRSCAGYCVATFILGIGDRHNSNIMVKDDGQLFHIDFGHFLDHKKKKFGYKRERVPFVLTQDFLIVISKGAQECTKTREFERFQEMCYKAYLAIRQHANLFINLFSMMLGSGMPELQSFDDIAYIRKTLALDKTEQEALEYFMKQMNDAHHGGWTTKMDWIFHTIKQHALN

Turning to `c1cc2cc(-c3nc(N4CC5CCC(C4)O5)c4sccc4n3)ccc2[nH]1`, in test [1], the Ratio IC50 amounted to 392. This molecule yielded an IC50 in the test with LNCaP of 1.35 µM.

Turning to `Nc1ncc(-c2nc(N3CCOCC3)c3sccc3n2)cn1`, the IC50 in test [2] came out at 0.061 µM; in test [3], 0.0085 µM; in the test with LNCaP it was 0.68 µM. Also, the Ratio IC50 in test [1] stood at 0.14.

For `CS(=O)(=O)N1CCN(Cc2cc3nc(-c4ccc(NC(=O)NC5CC5)cc4)nc(N4CC5CCC(C4)O5)c3s2)CC1`, the results for the half-maximal inhibitory concentration (IC50) (in test [2]; in the test on LNCaP) were 0.001 µM and 0.032 µM, respectively. Also, the Ratio IC50 in test [1] was found to be 176.

Regarding `CN1CCN(Cc2cc3nc(-c4ccc(NC(=O)Nc5cccnc5)cc4)nc(N4CC5CCC(C4)O5)c3s2)CC1`, in test [1], the Ratio IC50 is 31. The same molecule registered an IC50 in the test on LNCaP of 0.148 µM.

In the case of `COC(=O)Nc1ccc(-c2nc(N3CC4CCC(C3)O4)c3sccc3n2)cc1`, the figures for the IC50 (in test [2]; in the test on LNCaP) were 0.011 µM and 1.85 µM, respectively. Further, the Ratio IC50 in test [1] was 549.

As for `CNC(=O)Nc1ccc(-c2nc(N3CC4CCC(C3)O4)c3sc(CN4CCN(C)CC4)cc3n2)cc1`, the IC50 in test [2] turned out to be 0.02 µM.

`O=C(Nc1ccc(-c2nc(N3CC4CCC(C3)O4)c3sccc3n2)cc1)NC1CC1`: the values for the IC50 (in test [2]; in the test on LNCaP) were 0.00068 µM and 0.04 µM, respectively. The Ratio IC50 in test [1] was 2010.

Turning to `O=C(Nc1ccc(-c2nc(N3CC4CCC(C3)O4)c3sccc3n2)cc1)Nc1cccnc1`, the figures for the IC50 (in test [2]; in the test on LNCaP) were 0.00029 µM and 0.027 µM, respectively. Moreover, in test [1], the Ratio IC50 turned out to be 410.

Take `Nc1ccc(-c2nc(N3CC4CCC(C3)O4)c3sccc3n2)cn1`: the figures for the IC50 (in test [2]; in the test on LNCaP) were 0.035 µM and 1.25 µM, respectively. Further, the Ratio IC50 in test [1] came to 51.

`Oc1ccc(-c2nc(N3CC4CCC(C3)O4)c3sccc3n2)cc1`: inhibition in test [2] was half-maximal at 0.032 µM (IC50).

`CNC(=O)Nc1ccc(-c2nc(N3CC4CCC(C3)O4)c3sc(CN4CCN(S(C)(=O)=O)CC4)cc3n2)cc1`: in test [1], the Ratio IC50 turned out to be 33. In the test on LNCaP, half-maximal inhibition (IC50) required 0.12 µM.

Consider `CN1CCN(Cc2cc3nc(-c4ccc(NC(=O)NC5CC5)cc4)nc(N4CC5CCC(C4)O5)c3s2)CC1`, for which the half-maximal inhibitory concentration (IC50) in test [2] stood at 0.016 µM; with LNCaP, 0.4 µM. Moreover, the Ratio IC50 in test [1] is 56.

Turning to `CNC(=O)Nc1ccc(-c2nc(N3CC4CCC(C3)O4)c3sccc3n2)cc1`, the IC50 in test [2] is 0.0009 µM; in the test on LNCaP, 0.085 µM. Moreover, the Ratio IC50 in test [1] turned out to be 492.

Take `CC(=O)Nc1ccc(-c2nc(N3CC4CCC(C3)O4)c3sccc3n2)cc1`: the figures for the half-maximal inhibitory concentration (IC50) (in test [2]; in the test on LNCaP) were 0.0265 µM and 1.7 µM, respectively. Besides, the Ratio IC50 in test [1] came to 165.

`CS(=O)(=O)N1CCN(Cc2cc3nc(-c4ccc(NC(=O)Nc5ccncc5)cc4)nc(N4CC5CCC(C4)O5)c3s2)CC1`: the results for the IC50 (in test [3]; in the test with LNCaP) were 0.0083 µM and 0.12 µM, respectively. In addition, in test [1], the Ratio IC50 worked out at 19.

For `Nc1ccc(-c2nc(N3CC4CCC(C3)O4)c3sccc3n2)cc1`, the IC50 in test [3] is greater than 10 µM.

As to `CN1CCN(Cc2cc3nc(-c4ccc(NC(=O)Nc5ccncc5)cc4)nc(N4CC5CCC(C4)O5)c3s2)CC1`, the Ratio IC50 in test [1] was 23. Also, 0.2 µM corresponded to half-maximal inhibition in the test on LNCaP (IC50).

In the case of `CCNC(=O)Nc1ccc(-c2nc(N3CC4CCC(C3)O4)c3sccc3n2)cc1`, half-maximal inhibition in test [2] (IC50) was put at 0.0007 µM.

With `O=C(NCCF)Nc1ccc(-c2nc(N3CC4CCC(C3)O4)c3sccc3n2)cc1`, the IC50 turned out to be 0.0007 µM in test [2] and 0.087 µM with LNCaP. Besides, in test [1], the Ratio IC50 is 1110.

In turn, `Oc1cccc(-c2nc(N3CC4CCC(C3)O4)c3sccc3n2)c1` returned an IC50 in test [2] of 0.058 µM.

`O=C(NCCO)Nc1ccc(-c2nc(N3CC4CCC(C3)O4)c3sccc3n2)cc1` registered an IC50 in test [2] of 0.00034 µM.

Consider `Oc1cccc(-c2nc(N3CCOCC3)c3sccc3n2)c1`, for which the IC50 in test [2] worked out at 0.049 µM; in test [3], 0.041 µM; in the test on LNCaP it was 1.3 µM. The Ratio IC50 in test [1] came to 0.9.

Take `O=C(Nc1ccccc1)Nc1ccc(-c2nc(N3CC4CCC(C3)O4)c3sccc3n2)cc1`: in test [2], the midpoint of inhibition, the IC50, lay at 0.00125 µM.

In the case of `Nc1ncc(-c2nc(N3CC4CCC(C3)O4)c3sccc3n2)cn1`, the IC50 worked out at 0.057 µM in test [2] and 1.2 µM with LNCaP. Further, the Ratio IC50 in test [1] came out at 4.4.

The molecule `CS(=O)(=O)N1CCN(Cc2cc3nc(-c4ccc(NC(=O)Nc5cccnc5)cc4)nc(N4CC5CCC(C4)O5)c3s2)CC1` had an IC50 in test [2] of 0.0006 µM.

As for `O=C(Nc1ccncc1)Nc1ccc(-c2nc(N3CC4CCC(C3)O4)c3sccc3n2)cc1`, the figures for the IC50 (in test [2]; with LNCaP) were 0.00044 µM and 0.01 µM, respectively. The Ratio IC50 in test [1] came to 182.
